The values that follow come from the NIST ThermoML archive (doi:10.1021/acs.jced.6b00655).

Values joined by “and” are separate entries in the source; they are usually repeats but may differ in a detail not shown here. Equal values may be shown once. Numbers after ± are expanded uncertainties.

For series [1] the following is noted: 100 kPa, Liquid, Vibrating tube method.
Series [2] is described as follows: xn = mol fraction of the nth substance listed. Particulars: 100 kPa, Liquid, Vibrating tube method.

A word on the mass density: it is the mass of a sample divided by its volume. As to `CCCC[N+]1(C)CCCC1.N#CN=C=[N-]` [1-butyl-1-methylpyrrolidinium dicyanamide], the mass density in series [1] (283.15 K) is 1021.84 ± 10 kg/m3 and 1022.97 ± 10 kg/m3 and 1022.94 ± 10 kg/m3.
On the same count and under the same terms, next, `CCCC[N+]1(C)CCCC1.O=S(=O)([O-])C(F)(F)F` [1-butyl-1-methylpyrrolidinium trifluoromethanesulfonate]: 1263.28 ± 10 kg/m3 and 1263.17 ± 10 kg/m3.
Consider `CCCC[N+]1(C)CCCC1.O=S(=O)([N-]S(=O)(=O)C(F)(F)F)C(F)(F)F` + Cc1cccc(C)c1, for which the mass density was found to be 1410.45 ± 10 kg/m3 in series [2] (283.15 K, x2 = 0); 1361.63 ± 10 kg/m3 in series [2] (283.15 K, x2 = 0.206); 1318.08 ± 11 kg/m3 in series [2] (283.15 K, x2 = 0.372); 1259.92 ± 11 kg/m3 in series [2] (283.15 K, x2 = 0.491); 1191.7 ± 11 kg/m3 in series [2] (283.15 K, x2 = 0.616).
As to `CCCC[N+]1(C)CCCC1.O=S(=O)([N-]S(=O)(=O)C(F)(F)F)C(F)(F)F` + Cc1ccc(C)cc1, the mass density in series [2] (283.15 K, x2 = 0) stood at 1407.6 ± 10 kg/m3; in series [2] (283.15 K, x2 = 0.207) it was 1361.17 ± 10 kg/m3; in series [2] (283.15 K, x2 = 0.357) it was 1315.5 ± 11 kg/m3; in series [2] (283.15 K, x2 = 0.507) it was 1254.4 ± 11 kg/m3; in series [2] (283.15 K, x2 = 0.617), 1193.73 ± 11 kg/m3.
Consider `CCCC[N+]1(C)CCCC1.O=S(=O)([N-]S(=O)(=O)C(F)(F)F)C(F)(F)F`, for which the mass density in series [1] (283.15 K) is 1410.45 ± 10 kg/m3 and 1407.6 ± 10 kg/m3.
Turning to `CCCC[N+](C)(C)C.O=S(=O)([N-]S(=O)(=O)C(F)(F)F)C(F)(F)F` [butyltrimethylammonium bis(trifluoromethylsulfonyl)imide] + Cc1ccccc1, the mass density is given as 1346.21 ± 10 kg/m3 in series [2] (343.15 K, x2 = 0); 1333.19 ± 10 kg/m3 in series [2] (343.15 K, x2 = 0.1); 1310.32 ± 10 kg/m3 in series [2] (343.15 K, x2 = 0.202); 1279.85 ± 10 kg/m3 in series [2] (343.15 K, x2 = 0.316); 1252.66 ± 11 kg/m3 in series [2] (343.15 K, x2 = 0.404); 1211.78 ± 11 kg/m3 in series [2] (343.15 K, x2 = 0.502). The mass density in series [2] (343.15 K, x2 = 0.61) was 1167.51 ± 11 kg/m3; in series [2] (343.15 K, x2 = 0.643), 1150.47 ± 11 kg/m3.
As to `CCCC[N+](C)(C)C.O=S(=O)([N-]S(=O)(=O)C(F)(F)F)C(F)(F)F` [butyltrimethylammonium bis(trifluoromethylsulfonyl)imide], the mass density in series [1] (343.15 K) is 1348.32 ± 10 kg/m3 and 1346.21 ± 10 kg/m3.
Turning to `CCCC[N+](C)(C)C.O=S(=O)([N-]S(=O)(=O)C(F)(F)F)C(F)(F)F` [butyltrimethylammonium bis(trifluoromethylsulfonyl)imide] + Cc1ccccc1C, the mass density in series [2] (343.15 K, x2 = 0) amounted to 1348.32 ± 10 kg/m3; in series [2] (343.15 K, x2 = 0.046), 1343.67 ± 10 kg/m3; in series [2] (343.15 K, x2 = 0.099), 1331.9 ± 10 kg/m3; in series [2] (343.15 K, x2 = 0.207), 1306.39 ± 10 kg/m3; in series [2] (343.15 K, x2 = 0.309) it was 1276.95 ± 10 kg/m3; in series [2] (343.15 K, x2 = 0.398), 1246.25 ± 11 kg/m3. The mass density came to 1213.91 ± 11 kg/m3 in series [2] (343.15 K, x2 = 0.481) and 1191.25 ± 11 kg/m3 in series [2] (343.15 K, x2 = 0.542).
With `CCCC[N+](C)(CCCC)CCCC.O=S(=O)([N-]S(=O)(=O)C(F)(F)F)C(F)(F)F` [tributylmethylammonium bis((trifluoromethyl)sulfonyl)imide] + Cc1ccccc1C, the mass density in series [2] (343.15 K, x2 = 0) was found to be 1224.15 ± 10 kg/m3; in series [2] (343.15 K, x2 = 0.152), 1204.93 ± 10 kg/m3; in series [2] (343.15 K, x2 = 0.26), 1188.05 ± 10 kg/m3; in series [2] (343.15 K, x2 = 0.365), 1168.37 ± 10 kg/m3; in series [2] (343.15 K, x2 = 0.506) it was 1134.17 ± 10 kg/m3; in series [2] (343.15 K, x2 = 0.623) it was 1096.91 ± 11 kg/m3. Besides, in series [2] (343.15 K, x2 = 0.751), the mass density amounted to 1046.57 ± 11 kg/m3.
`CCCC[N+]1(C)CCCC1.O=S(=O)([O-])C(F)(F)F` [1-butyl-1-methylpyrrolidinium trifluoromethanesulfonate] + Cc1ccc(C)cc1: the mass density came to 1263.17 ± 10 kg/m3 in series [2] (283.15 K, x2 = 0); 1249.16 ± 10 kg/m3 in series [2] (283.15 K, x2 = 0.053); 1242.37 ± 10 kg/m3 in series [2] (283.15 K, x2 = 0.102); 1216.86 ± 10 kg/m3 in series [2] (283.15 K, x2 = 0.203); 1195.95 ± 10 kg/m3 in series [2] (283.15 K, x2 = 0.306); 1180.48 ± 10 kg/m3 in series [2] (283.15 K, x2 = 0.361). Moreover, the mass density in series [2] (283.15 K, x2 = 0.415) worked out at 1164.5 ± 10 kg/m3.
Regarding `CCCC[N+](C)(CCCC)CCCC.O=S(=O)([N-]S(=O)(=O)C(F)(F)F)C(F)(F)F` [tributylmethylammonium bis((trifluoromethyl)sulfonyl)imide] + c1ccccc1, the mass density in series [2] (343.15 K, x2 = 0) turned out to be 1224.15 ± 10 kg/m3; in series [2] (343.15 K, x2 = 0.048) it was 1220.37 ± 10 kg/m3; in series [2] (343.15 K, x2 = 0.097), 1216.25 ± 10 kg/m3; in series [2] (343.15 K, x2 = 0.198) it was 1204.31 ± 10 kg/m3; in series [2] (343.15 K, x2 = 0.294) it was 1188.64 ± 10 kg/m3; in series [2] (343.15 K, x2 = 0.393), 1168.17 ± 10 kg/m3. Also, the mass density is 1139.35 ± 10 kg/m3 in series [2] (343.15 K, x2 = 0.506); 1112.34 ± 11 kg/m3 in series [2] (343.15 K, x2 = 0.596); 1076.48 ± 11 kg/m3 in series [2] (343.15 K, x2 = 0.701); 1062.44 ± 11 kg/m3 in series [2] (343.15 K, x2 = 0.738); 1048.36 ± 11 kg/m3 in series [2] (343.15 K, x2 = 0.774); 1037.22 ± 11 kg/m3 in series [2] (343.15 K, x2 = 0.801). Further, the mass density in series [2] (343.15 K, x2 = 0.823) worked out at 1028.14 ± 11 kg/m3; in series [2] (343.15 K, x2 = 0.85), 1016.43 ± 11 kg/m3; in series [2] (343.15 K, x2 = 0.865), 1010.24 ± 11 kg/m3.
On to `CCCC[N+](C)(CCCC)CCCC.O=S(=O)([N-]S(=O)(=O)C(F)(F)F)C(F)(F)F` [tributylmethylammonium bis((trifluoromethyl)sulfonyl)imide], for which the mass density in series [1] (343.15 K) is 1224.15 ± 10 kg/m3 and 1224.18 ± 10 kg/m3.
For `CCCC[N+](C)(C)C.O=S(=O)([N-]S(=O)(=O)C(F)(F)F)C(F)(F)F` [butyltrimethylammonium bis(trifluoromethylsulfonyl)imide] + c1ccccc1, the mass density in series [2] (343.15 K, x2 = 0) was found to be 1348.32 ± 10 kg/m3; in series [2] (343.15 K, x2 = 0.096) it was 1335.57 ± 10 kg/m3; in series [2] (343.15 K, x2 = 0.2) it was 1316.52 ± 10 kg/m3; in series [2] (343.15 K, x2 = 0.308), 1288.49 ± 10 kg/m3; in series [2] (343.15 K, x2 = 0.414) it was 1262.43 ± 10 kg/m3; in series [2] (343.15 K, x2 = 0.512) it was 1229.56 ± 11 kg/m3. The mass density is listed as 1185.89 ± 11 kg/m3 in series [2] (343.15 K, x2 = 0.613) and 1105.62 ± 11 kg/m3 in series [2] (343.15 K, x2 = 0.762).
On to `CCCC[N+](C)(CCCC)CCCC.O=S(=O)([N-]S(=O)(=O)C(F)(F)F)C(F)(F)F` [tributylmethylammonium bis((trifluoromethyl)sulfonyl)imide] + CCc1ccccc1, for which the mass density in series [2] (343.15 K, x2 = 0) is reported as 1224.15 ± 10 kg/m3; in series [2] (343.15 K, x2 = 0.105) it was 1210.81 ± 10 kg/m3; in series [2] (343.15 K, x2 = 0.203), 1197.48 ± 10 kg/m3; in series [2] (343.15 K, x2 = 0.295) it was 1179.85 ± 10 kg/m3; in series [2] (343.15 K, x2 = 0.389), 1160.38 ± 10 kg/m3; in series [2] (343.15 K, x2 = 0.461) it was 1142.53 ± 10 kg/m3. The mass density is reported as 1105.8 ± 10 kg/m3 in series [2] (343.15 K, x2 = 0.584); 1065.88 ± 11 kg/m3 in series [2] (343.15 K, x2 = 0.701); 1053.69 ± 11 kg/m3 in series [2] (343.15 K, x2 = 0.732).
As for `CCCC[N+]1(C)CCCC1.O=S(=O)([O-])C(F)(F)F` [1-butyl-1-methylpyrrolidinium trifluoromethanesulfonate] + CCc1ccccc1, the mass density is 1263.17 ± 10 kg/m3 in series [2] (283.15 K, x2 = 0); 1254.99 ± 10 kg/m3 in series [2] (283.15 K, x2 = 0.044); 1240.68 ± 10 kg/m3 in series [2] (283.15 K, x2 = 0.107); 1220.18 ± 10 kg/m3 in series [2] (283.15 K, x2 = 0.209); 1193.98 ± 10 kg/m3 in series [2] (283.15 K, x2 = 0.309); 1174.45 ± 10 kg/m3 in series [2] (283.15 K, x2 = 0.391). In series [2] (283.15 K, x2 = 0.42), the mass density worked out at 1164.28 ± 11 kg/m3.
